In patent US11285127B2, “Compositions and methods for lowering triglycerides without raising LDL-C levels in a subject on concomitant statin therapy” (Amarin Pharmaceuticals Ireland Limited, priority 2013, dated 2022):

Tested on: patients with fasting triglyceride levels >200 mg/dl and <500 mg/dl despite statin therapy
Test: 12-week study: glucose metabolism (FPG, HbA1c, insulin, HOMA-IR)
Assay type: in vivo, human
Conditions: MITT; for Fasting plasma glucose Percent change from Baseline Median (IQR) / HOMA-IR Percent change from Baseline Median (IQR) / HbAlc Percent change from Baseline Median (IQR) / Insulin Percent change from Baseline Median (IQR): Week 12 EP; for Fasting plasma glucose Percent change from Baseline Median (IQR) / HOMA-IR Percent change from Baseline Median (IQR) / HbAlc Percent change from Baseline Median (IQR) / Insulin Percent change from Baseline Median (IQR) / Fasting plasma glucose Difference from placebo Estimated median / HOMA-IR Difference from placebo Estimated median / HbAlc Difference from placebo Estimated median / Insulin Difference from placebo Estimated median: ANCOVA; for Fasting plasma glucose Difference from placebo Estimated median / HOMA-IR Difference from placebo Estimated median / HbAlc Difference from placebo Estimated median / Insulin Difference from placebo Estimated median: change from baseline to Week 12 EP
Excerpt: Parameters (a)-(z) can be measured in accordance with any clinically acceptable methodology. For example, triglycerides, total cholesterol, HDL-C and fasting blood sugar can be sample from serum and analyzed using standard photometry techniques. VLDL-TG, LDL-C and VLDL-C can be calculated or determined using serum lipoprotein fractionation by preparative ultracentrifugation and subsequent quantitative analysis by refractometry or by analytic ultracentrifugal methodology. Apo A1, Apo B and hsCRP can be determined from serum using standard nephelometry techniques. Lipoprotein (a) can be determined from serum using standard turbidimetric immunoassay techniques. LDL particle number and particle size can be determined using nuclear magnetic resonance (NMR) spectrometry. Remnants lipoproteins and LDL-phospholipase A2 can be determined from EDTA plasma or serum and serum, respectively, using enzymatic immunoseparation techniques. Oxidized LDL, intercellular adhesion molecule-1 and interleukin-2 levels can be determined from serum using standard enzyme immunoassay techniques. These techniques are described in detail in standard textbooks, for example Tietz Fundamentals of Clinical Chemistry, 6th Ed. (Burtis, Ashwood and Borter Eds.), WB Saunders Company.
A multi-center, placebo-controlled, randomized, double-blind, 12-week study was performed to evaluate the efficacy and safety of >96% E-EPA in patients with fasting triglyceride levels >200 mg/dl and <500 mg/dl despite statin therapy (the mean of two qualifying entry values needed to be >185 mg/dl and at least one of the values needed to be >200 mg/dl). The primary objective of the study was to determine the efficacy of >96% E-EPA 2 g daily and 4 g daily, compared to placebo, in lowering fasting TG levels in patients with high risk for cardiovascular disease and with fasting TG levels 200 mg/dl and <500 mg/dl, despite treatment to LDL-C goal on statin therapy.
The secondary objectives of this study were the following: • 1. To determine the safety and tolerability of >96% E-EPA 2 g daily and 4 g daily; • 2. To determine the effect of >96% E-EPA on lipid and apolipoprotein profiles including total cholesterol (TC), non-high-density lipoprotein cholesterol (non-HDL-C), low density lipoprotein cholesterol (LDL-C), high density lipoprotein cholesterol (HDL-C), and […]; • 3. To determine the effect of >96% E-EPA on lipoprotein associated phospholipase A2 (Lp-PLA2) from baseline to week 12; • 4. To determine the effect of >96% E-EPA on low-density lipoprotein (LDL) particle number and size; • 5. To determine the effect of >96% E-EPA on oxidized LDL; • 6. To determine the effect of >96% E-EPA on fasting plasma glucose (FPG) and hemoglobin A1c (HbA1c); • 7. To determine the effect of >96% E-EPA on insulin resistance; • 8. To determine the effect of >96% E-EPA on high-sensitivity C-reactive protein (hsCRP); • 9. To determine the effects of >96% E-EPA 2 g daily and 4 g daily on the incorporation of fatty acids into red blood cell membranes and into plasma phospholipids; • 10. To explore the relationship between baseline fasting TG levels and the reduction in fasting TG levels; and • 11. To explore the relationship between changes of fatty acid concentrations in plasma and red blood cell membranes, and the reduction in fasting TG levels.
The primary efficacy variable for the double-blind treatment period was percent change in TG from baseline to Week 12 endpoint. […]

## CC/C=C\C/C=C\C/C=C\C/C=C\C/C=C\CCCC(=O)OCC [AMR101, ethyl eicosapentaenoate]
AMR101 2 g/d + statin
  Fasting plasma glucose Week 12 EP Median (IQR): 138.0 (44.9) mg/dL
  HOMA-IR Week 12 EP Median (IQR): 6.4 (4.5)
  HbAlc Week 12 EP Median (IQR): 6.8 (1.2) %
  Insulin Week 12 EP Median (IQR): 18.6 (11.0) μIU/mL
  Fasting plasma glucose Percent change from Baseline Median (IQR): 3.6 (2.1) %
  HOMA-IR Percent change from Baseline Median (IQR): −0.6 (0.4) %
  HbAlc Percent change from Baseline Median (IQR): 0.2 (0.04) %
  Insulin Percent change from Baseline Median (IQR): −1.2 (0.9) %
  Fasting plasma glucose Difference from placebo Estimated median: −0.6 (3.0)
  HOMA-IR Difference from placebo Estimated median: −0.1 (0.5)
  HbAlc Difference from placebo Estimated median: −0.0 (0.05)
  Insulin Difference from placebo Estimated median: −0.1 (1.3)
AMR101 4 g/d + statin
  Fasting plasma glucose Week 12 EP Median (IQR): 141.9 (51.1) mg/dL
  HOMA-IR Week 12 EP Median (IQR): 6.9 (6.7)
  HbAlc Week 12 EP Median (IQR): 6.9 (1.1) %
  Insulin Week 12 EP Median (IQR): 19.0 (16.2) μIU/mL
  Fasting plasma glucose Percent change from Baseline Median (IQR): 8.9 (2.1) %
  HOMA-IR Percent change from Baseline Median (IQR): −0.1 (0.4) %
  HbAlc Percent change from Baseline Median (IQR): 0.3 (0.04) %
  Insulin Percent change from Baseline Median (IQR): −1.1 (0.9) %
  Fasting plasma glucose Difference from placebo Estimated median: 4.7 (3.0)
  HOMA-IR Difference from placebo Estimated median: 0.3 (0.6)
  HbAlc Difference from placebo Estimated median: 0.1 (0.05)
  Insulin Difference from placebo Estimated median: 0.0 (1.3)
